Source: patent US20250122155A1, “NOVEL INDOLE DERIVATIVE, PHARMACEUTICAL COMPOSITION COMPRISING SAME, AND USE THEREOF” (MITOIMMUNE THERAPEUTICS INC., priority 2021, published 2025)

Legend:
[1] = test system: H9C2 cells; experiment: Cell death protective effect in cardiac myocytes against Erastin, glutamate and RSL3 (LDH); assay type: cell-based, rat; conditions: 24 hours
Method: (§1) In order to identify the protective effect on cardiac cells, H9C2 cells were divided into 96-well plates by 1×10^4 and cultured for 18 to 24 hours. The compounds of Examples were diluted to final concentrations of 0.1 and 1 μM, treated in each well, and incubated for 15 to 20 minutes. Erastin, glutamate, and RSL3 were treated to have final concentrations of 1 μM, 25 mM, and 0.5 μM, respectively, and cultured for 24 hours. In order to identify the protective effect of each compound, the degree of LDH extracellular secretion was measured using cytotoxicity LDH assay kit [Dojindo; CK12]. Briefly, at the time when the treatment of the cells with Erastin, glutamate, and RSL3 for 24 hours is completed, the supernatants containing the cells are taken by 70 μL and transferred to a new 96-well plate. The assay buffer included in the kit is added in an amount of 70 μL/well (the same amount as the sample) thereto, and then the plate is wrapped with a foil and the reaction is performed at room temperature for 15 minutes.

[2] = test system: NIH/3T3 cells; experiment: Cell death protective effect in fibroblasts against Erastin, glutamate and RSL3 (LDH); assay type: cell-based, mouse; conditions: 24 hours
Method: as §1, with “effect on fibroblasts, NIH/3T3 cells were” for “effect on cardiac cells, H9C2 cells were”, “plates by 8×10^3 and cultured” for “plates by 1×10^4 and cultured”, “concentrations of 3 μM, 30” for “concentrations of 1 μM, 25”, “3 μM, 30 mM, and” for “1 μM, 25 mM, and”, “mM, and 3 μM, respectively,” for “mM, and 0.5 μM, respectively,”, “15 minutes. After observing the changed color of the sample, the stop solution was added in an amount of 35 μL/well thereto, and then the 00 inhibition value was calculated by measuring the absorbance value at a wavelength of 490 nm using an iD3 spectrophotometer.” for “15 minutes.”

[3] = H9C2, Erastin 1 μM, compound 0.1 μM
[4] = H9C2, Erastin 1 μM, compound 1.0 μM
[5] = H9C2, Glutamate 25 mM, compound 0.1 μM
[6] = H9C2, Glutamate 25 mM, compound 1.0 μM
[7] = H9C2, RSL3 0.5 μM, compound 0.1 μM
[8] = H9C2, RSL3 0.5 μM, compound 1.0 μM
[9] = NIH/3T3, Erastin 3 μM, compound 0.1 μM
[10] = NIH/3T3, Erastin 3 μM, compound 1.0 μM
[11] = NIH/3T3, Glutamate 30 mM, compound 0.1 μM
[12] = NIH/3T3, Glutamate 30 mM, compound 1.0 μM
[13] = NIH/3T3, RSL3 3 μM, compound 0.1 μM
[14] = NIH/3T3, RSL3 3 μM, compound 1.0 μM

Compound	inhibition (%) [1, 3]	inhibition (%) [1, 4]	inhibition (%) [1, 5]	inhibition (%) [1, 6]	inhibition (%) [1, 7]	inhibition (%) [1, 8]	inhibition (%) [2, 9]	inhibition (%) [2, 10]	inhibition (%) [2, 11]	inhibition (%) [2, 12]	inhibition (%) [2, 13]	inhibition (%) [2, 14]
COCCOCc1cc(NCC2CCOCC2)c2[nH]c(-c3ccccc3)cc2c1 [Example 4, 5-2(methoxyethoxymethyl)-2-phenyl-N-(tetrahydropyran-4-ylmethyl)-1H-indol-7-amine]	100%	100%	97%	96%	97%	96%	99%	99%	100%	100%	100%	100%
CCOCCOCc1cc(NC2CCCC2)c2[nH]c(-c3ccccc3)cc2c1 [Example 36, N-cyclopentyl-5-(2-ethoxyethoxymethyl)-2-phenyl-1H-indol-7-amine]	100%	100%	99%	97%	98%	99%	99%	100%	100%	100%	100%	100%
COCCOCc1cc(NC2CCOCC2)c2[nH]cc(C)c2c1 [Example 50, 5-(2-methoxyethoxymethyl)-3-methyl-N-tetrahydropyran-4-yl-1H-indol-7-amine]	16%	18%	0%	49%	7%	4%	0%	8%	99%	100%	100%	100%
COCCOCCOCc1cc(NC2CCCC2)c2[nH]c(-c3ccccc3)cc2c1 [Example 39, N-cyclopentyl-5-[2-(2-methoxyethoxy)ethoxymethyl]-2-phenyl-1H-indol-7-amine]	100%	100%	96%	96%	96%	96%	99%	100%	99%	100%	100%	100%
COCCOCc1cc(NCc2ccncc2)c2[nH]c(-c3ccccc3)cc2c1 [Example 45, 5-(2-methoxyethoxymethyl)-2-phenyl-N-(4-pyridylmethyl)-1H-indol-7-amine]	100%	100%	98%	96%	99%	97%	100%	100%	0%	97%	0%	100%
CCOC(=O)c1ccc(NC2CCCCC2)c(N)c1 [Ferrostatin-1, reference compound]	100%	100%	98%	97%	96%	96%	17%	99%	97%	97%	100%	100%
COCCOCc1cc(NC2CCOCC2)c2[nH]c(-c3ccccc3)cc2c1 [Example 1, 5-(2-methoxyethoxymethyl)-2-phenyl-N-tetrahydropyran-4-yl-1H-indol-7-amine]	100%	100%	96%	97%	100%	98%	99%	100%	100%	100%	100%	100%
COCCOCc1cc(NC2CCN(C(C)=O)CC2)c2[nH]c(-c3ccccc3)cc2c1 [Example 30, 1-[4-[[5-(2-methoxyethoxymethyl)-2-phenyl-1H-indol-7-yl]amino]piperidyl]-1-ethanone]	0%	100%	90%	98%	0%	96%	6%	100%	100%	100%	100%	100%
COCCOCc1cc(NC2CCNCC2)c2[nH]c(-c3ccccc3)cc2c1 [Example 64, 5-((2-methoxyethoxy)methyl)-2-phenyl-N-(piperidin-4-yl)-1H-indol-7-amine]	100%	100%	97%	97%	90%	95%	99%	100%	99%	100%	100%	100%
